Measurements: PubChem BioAssay (NCI)
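Grown in 96-well plates, cells were treated for 48 hours with each compound at five concentrations. Insufficient inhibition: endpoint recorded as highest concentration tested. GI50 marks 50% less growth. TGI: concentration producing complete growth inhibition.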

Columns and labels:
Test in all cases: NCI-60 cell line screen, 48 h
DMS 114 small cell lung = system: DMS 114 small cell lung
DMS 273 small cell lung = system: DMS 273 small cell lung
HOP-18 NSCLC = system: HOP-18 NSCLC
K-562 leukemia = system: K-562 leukemia
KM20L2 colon = system: KM20L2 colon
LOX IMVI melanoma = system: LOX IMVI melanoma
M14 melanoma = system: M14 melanoma
SR leukemia = system: SR leukemia
TK-10 renal = system: TK-10 renal
MDA-MB-435 = system: MDA-MB-435
NCI/ADR-RES ovarian = system: NCI/ADR-RES ovarian
T-47D breast = system: T-47D breast
SNB-78 CNS = system: SNB-78 CNS

SMILES | TGI (DMS 114 small cell lung) | TGI (DMS 273 small cell lung) | TGI (HOP-18 NSCLC) | TGI (K-562 leukemia) | TGI (KM20L2 colon) | TGI (LOX IMVI melanoma) | TGI (M14 melanoma) | TGI (SR leukemia) | TGI (TK-10 renal) | TGI (MDA-MB-435) | TGI (NCI/ADR-RES ovarian) | TGI (T-47D breast) | GI50 (K-562 leukemia) | GI50 (LOX IMVI melanoma) | GI50 (M14 melanoma) | GI50 (MDA-MB-435) | GI50 (NCI/ADR-RES ovarian) | GI50 (T-47D breast) | GI50 (TK-10 renal) | TGI (SNB-78 CNS)
CC1CC2=C(S(=O)(=O)c3ccccc3)CC(S(=O)(=O)c3ccccc3)(S(=O)(=O)c3ccccc3)CC21 (stereo not drawn) | > 100 µM | > 100 µM | > 100 µM | > 100 µM | > 100 µM | > 100 µM | > 100 µM | > 100 µM | > 100 µM | – | – | – | – | – | – | – | – | – | – | –
CCOP(=O)(OCC)C(c1ccc(F)cc1)N(C(=O)NC(F)(F)F)c1cccc(C(F)(F)F)c1 (stereo not drawn) | – | – | – | > 100 µM | – | > 100 µM | > 100 µM | > 100 µM | > 100 µM | > 100 µM | > 100 µM | > 100 µM | – | – | – | – | – | – | – | –
COc1ccccc1CNCCCN1C(=O)c2ccc3c4c(ccc(c24)C1=O)C(=O)N(CCCNCCNCCCN)C3=O | – | – | – | 16.7 µM | – | 10.4 µM | 4.49 µM | – | 44.7 µM | 4.94 µM | > 100 µM | 4.99 µM | 3.24 µM | 2100 nM | 2.07 µM | 2070 nM | 23.1 µM | 1510 nM | 6.65 µM | –
COc1cc2oc(-c3ccc(O)cc3)c(OC)c(=O)c2c(O)c1OC | – | – | – | > 100 µM | – | – | > 100 µM | – | > 100 µM | – | > 100 µM | – | 42.8 µM | – | 47.2 µM | – | 30.9 µM | – | 62.4 µM | –
C/C(=N/NC(N)=S)c1ccc[nH]1 | – | – | – | > 100 µM | – | > 100 µM | > 100 µM | – | > 100 µM | > 100 µM | > 100 µM | > 100 µM | – | – | – | – | – | – | – | –
CCOC(=O)CNC(=O)N(CC)C12CC3CC(CC(C3)C1)C2 | 274 µM | 315 µM | 536 µM | 409 µM | 223 µM | 252 µM | – | – | – | – | 402 µM | – | – | – | – | – | – | – | – | 474 µM
C[C@@H]1Nc2cc(NC(=O)OCCF)nc(N)c2N=C1c1ccccc1 | – | – | – | < 0.0001 µM | – | – | – | – | – | < 0.0001 µM | < 0.0001 µM | > 100 µM | – | – | – | – | – | – | – | –
COc1ccc(S(=O)(=O)c2ccccc2[N+](=O)[O-])cc1 | > 100 µM | > 100 µM | > 100 µM | > 100 µM | > 100 µM | > 100 µM | > 100 µM | > 100 µM | > 100 µM | – | – | – | – | – | – | – | – | – | – | –
COCc1nc2c(OC)c(-c3nc4nc(N5CCN(C)CC5)ccc4[nH]3)cc(OC)c2n1C | – | – | – | > 100 µM | – | 39.5 µM | 43.3 µM | – | – | 48.4 µM | > 100 µM | > 100 µM | – | – | – | – | – | – | – | –
Clc1ccc(C[P+](c2ccccc2)(c2ccccc2)c2ccccc2)c(Cl)c1 | 6 µM | 10.1 µM | – | – | 18.9 µM | 12.9 µM | 14.3 µM | 8.13 µM | 25.6 µM | – | – | – | – | – | – | – | – | – | – | 11 µM
CCOC(=O)c1ccc(N[C@@H]2c3cc4c(cc3C(c3cc(OC)c(O)c(OC)c3)[C@H]3C(=O)OCC32)OCO4)cc1O (stereo partly drawn) | 2.03 µM | 1.77 µM | > 54.4 µM | – | > 22.3 µM | 0.442 µM | – | – | – | – | 99.3 µM | – | – | – | – | – | – | – | – | > 100 µM
CCOC(=O)Cn1c(=O)ccn(COCCO)c1=O | – | – | – | > 100 µM | – | > 100 µM | > 100 µM | – | > 100 µM | > 100 µM | > 100 µM | > 100 µM | – | – | – | – | – | – | – | –
COCCCNc1nc(N)c(C#N)c(C#N)c1C#N | – | – | – | > 10 µM | – | > 10 µM | > 10 µM | > 10 µM | > 10 µM | > 10 µM | > 10 µM | > 10 µM | – | – | – | – | – | – | – | –
